Laboratory results from US8263607B2, “1-substituted tetrahydroisoquinoline compound” (Astellas Pharma Inc., priority 2007, dated 2012).

How the values were obtained:
[1] = test system: formalin-induced pain behaviors; test: Nociceptive pain model (mouse formalin test); format: in vivo, mice (ddY, male); details: 100 mg/kg oral, 30 min before formalin; pain behaviors 15 to 25 min after formalin, vs vehicle
Protocol: A mouse formalin test was carried out by a modification of the method as described in the literature [Murakami et al., Eur. J. Pharmacol. 419: 175-181 (2001)]. When 20 μL of 2.0% formalin was subcutaneously administered to the paw pads of mice (ddY, male, 5 weeks old), pain behaviors (limb withdrawal and licking behaviors) were induced in the treated animal limbs. From 15 to 25 minutes after the administration of formalin, the time taken for the onset of pain behaviors was measured to thereby evaluate the inhibitory action of the test compound on pain behaviors of animals. The test compound was orally given 30 minutes prior to the administration of formalin. […] Inhibition rate(%)=100−(mean onset time of pain behaviors in test compound-treated group)/(mean onset time of pain behaviors in vehicle-treated group)×100

[2] = test system: mechanical allodynia in L5/L6 spinal nerve-ligated rats; test: Neuropathic pain model (antiallodynic effects in L5/L6 spinal nerve-ligated rats, von Frey hair test); format: in vivo, rats (SD, male); details: 30 to 60 min before measurement, response threshold, ipsilateral 0% / contralateral 100% of vehicle group
Protocol: The antiallodynic effects of the compounds of the present invention were confirmed by assessing the analgesic action in L5/L6 spinal nerve-ligated rats. The assessment was carried out by the method of Kim and Chung (Pain 50, 355-363, 1992) with some modifications.
Under pentobarbital anesthesia, the left L5 and L6 spinal nerves of male SD rats (5-6 weeks old) were tightly ligated with silk thread. For the assessment of analgesic action, the von Frey hair test was adopted. That is, the animal's hind paw pad was pricked with hair and the lowest strength of hair for limb withdrawal response was designated as a response threshold (log gram) to mechanical stimulation. […] On the day before the assessment of the test compound, the response threshold before administration of the test compound was measured. The animals were divided into 4 to 5 groups such that mean value differences of response thresholds between groups before administration of the test compound and within-group variation become small. In the assessment of the test compound, the response threshold after administration of the test compound was measured. The test compound was orally administered 30 to 60 minutes before the measurement of the response threshold. […] Recovery rate(%)={(mean of response threshold in test compound-treated group)−(mean of response threshold of ipsilateral paw in vehicle-treated group)}/{(mean of response threshold of contralateral paw in the vehicle-treated group)−(mean of response threshold of ipsilateral paw in the vehicle-treated group)}×100

[3] = test system: CRD-induced abdominal flexion reflex behaviors; test: Abdominal pain model (CRD-induced abdominal pain in rats); format: in vivo, rat (Wistar, male); details: 10 mg/kg oral, 30 min before distension; abdominal flexion reflex behaviors at internal pressure of 45 mmHg
Protocol: Improving effects of the compounds of the present invention on digestive tract pain were confirmed by assay of CRD-induced abdominal pain in rats. The rat CRD-induced abdominal pain assay was carried out by a modification of the method described in the literature [Neurogastroenterol. Motil. 15: 363-369 (2003)]. When stimulation of constant internal pressure is applied to the colorectum of an animal by inflation of a 6-cm long balloon inserted into the anus of the rat (Wistar, male, 250-350 g), abdominal flexion reflex behaviors are induced due to abdominal pain. A frequency of reflex behaviors occurring during distension stimulation of 5 minutes was counted to estimate an abdominal pain-inhibitory action of the test compound. The test compound was orally administered 30 minutes before the initiation of distension stimulation. Estimation of the test compound was made by calculating an inhibition rate (%) of abdominal flexion reflex behaviors on the vehicle-treated group.

[4] = test system: loperamide-induced bead transit delay; test: Spastic constipation model (loperamide-induced colorectal bead transit delay test in mice); format: in vivo, mouse (ddY, male); details: 3 mg/kg oral, concurrently with loperamide 0.3 mg/kg s.c.; bead excretion time
Protocol: A 3-mm diameter glass bead is deeply inserted at a depth of 2 cm into the anus of the mouse (ddY, male, 6 weeks old), and the time taken for excretion of the bead is measured. […] With improving effects on the loperamide-induced bead transit delay, a bowel movement-improving action of the test compound on spastic constipation was evaluated. The test compound was orally administered concurrently with administration of loperamide (30 minutes before the insertion of the bead). The assessment of the test compound was made from calculation of an improvement rate in the bead excretion time of the test compound-treated/loperamide-treated group, by taking the bead excretion time of the non-test compound treated/non-loperamide treated (vehicle-treated/vehicle-treated) group as 100%, and by taking the bead excretion time of the non-test compound treated/loperamide-treated (vehicle-treated/loperamide-treated) group as 0%.

[5] = test system: mechanical allodynia in L5/L6 spinal nerve-ligated rats; details: known; cited from earlier work

SMILES	Inhibition rate [1] [%]	Recovery rate (%) (dose) ([2]; 30 mg/kg oral)	Inhibition rate [3] [%]	Inhibition rate [4] [%]	Recovery rate (%) (dose) ([2]; 10 mg/kg oral)	recovery of mechanical allodynia with treatment of morphine [5]
O=C(CNCC1(O)CCCCC1)N1CCc2ccccc2[C@@H]1C1CCCCC1 [Example 1, 1-[({2-[(1S)-1-cyclohexyl-3,4-dihydroisoquinolin-2(1H)-yl]-2-oxoethyl}amino)methyl]cyclohexanol]	52	95	–	–	–	–
COC[C@@H](O)CNCC(=O)N1CCc2ccccc2[C@@H]1C1CCCCC1 [Example 157]	52	97	59	40	–	–
COc1ccc2c(c1)CCN(C(=O)CNCC1(O)CCCCC1)[C@H]2C(C)C [Example 415]	–	–	60	88	–	–
COC[C@@H](O)CNCC(=O)N1CCc2ccccc2[C@@H]1Cc1ccccc1C(F)(F)F [Example 433]	60	–	43	73	80	–
COc1cccc2c1[C@H](c1ccccc1)N(C(=O)CNC[C@@H](C)O)CC2 [Example 435]	–	–	46	67	–	–
CCc1ccc2c(c1)[C@H](COC)N(C(=O)CNCC1(O)CCCCC1)CC2 [Example 436]	55	–	56	59	156	–
COc1cccc2c1[C@H](c1ccccc1)N(C(=O)CNC[C@@H](C)O)CC2 [Example 575]	77	–	–	–	83	–
CN1CC[C@]23c4c5ccc(O)c4O[C@H]2[C@@H](O)C=C[C@H]3[C@H]1C5 [morphine]	–	–	–	–	–	only a partial recovery
